Source: PMC5122590, “Identification of a Dolabellane Type Diterpene Synthase and other Root-Expressed Diterpene Synthases in Arabidopsis” (Frontiers in Plant Science, 2016)

Legend:
TPS26 = molecular target: T1, TPS26 (Arabidopsis thaliana, UniProt Q9C8E3); assay: E. coli coexpression with (E,E)-FPP synthase, GC-MS; type: cell-based; conditions: trace alpha-humulene and (E)-beta-farnesene formed
T1 construct: N-terminal 38 aa removed; pET28a; RIKEN cDNA clone; expressed in E. coli with prenyl diphosphate synthase
T1 sequence (Q9C8E3 39-598): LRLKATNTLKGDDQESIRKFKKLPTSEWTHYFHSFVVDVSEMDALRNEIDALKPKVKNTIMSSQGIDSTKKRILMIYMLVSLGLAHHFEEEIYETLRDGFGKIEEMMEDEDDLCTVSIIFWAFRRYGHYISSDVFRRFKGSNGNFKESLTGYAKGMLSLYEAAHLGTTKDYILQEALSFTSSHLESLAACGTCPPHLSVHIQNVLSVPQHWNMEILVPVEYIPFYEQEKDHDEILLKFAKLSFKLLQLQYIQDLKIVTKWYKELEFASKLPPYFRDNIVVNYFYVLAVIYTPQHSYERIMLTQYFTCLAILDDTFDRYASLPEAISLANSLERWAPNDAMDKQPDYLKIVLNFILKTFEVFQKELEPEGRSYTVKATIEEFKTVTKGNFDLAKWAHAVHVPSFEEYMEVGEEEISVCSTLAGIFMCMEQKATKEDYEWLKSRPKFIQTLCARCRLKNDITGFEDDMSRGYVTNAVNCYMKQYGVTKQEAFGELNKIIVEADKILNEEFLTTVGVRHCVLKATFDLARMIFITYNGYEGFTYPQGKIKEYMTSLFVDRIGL

TPS25 = molecular target: T2, TPS25 (Arabidopsis thaliana, UniProt Q9LIA1); assay: in vitro assay, SPME-GC-MS; type: biochemical; conditions: main product (E)-beta-farnesene
T2 construct: N-terminal 25 aa (transit peptide) removed; TOPO-pET102; E. coli; partially purified
T2 sequence (Q9LIA1 26-603): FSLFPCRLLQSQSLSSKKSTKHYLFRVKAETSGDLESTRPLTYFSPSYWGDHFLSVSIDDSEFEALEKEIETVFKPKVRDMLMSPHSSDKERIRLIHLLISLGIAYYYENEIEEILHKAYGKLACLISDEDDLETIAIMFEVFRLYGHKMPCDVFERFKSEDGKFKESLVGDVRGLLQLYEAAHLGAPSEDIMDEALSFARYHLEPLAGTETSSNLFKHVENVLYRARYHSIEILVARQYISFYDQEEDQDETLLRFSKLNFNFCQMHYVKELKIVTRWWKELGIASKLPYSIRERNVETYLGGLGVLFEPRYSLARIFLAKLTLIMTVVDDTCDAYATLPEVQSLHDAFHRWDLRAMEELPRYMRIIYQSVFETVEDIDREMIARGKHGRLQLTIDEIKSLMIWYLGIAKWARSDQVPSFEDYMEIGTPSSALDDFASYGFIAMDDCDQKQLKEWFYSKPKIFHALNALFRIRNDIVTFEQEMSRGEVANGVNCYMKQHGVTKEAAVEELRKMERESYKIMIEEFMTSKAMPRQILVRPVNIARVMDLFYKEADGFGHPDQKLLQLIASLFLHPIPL

TPS9 [1] = molecular target: T3, TPS9 (Arabidopsis thaliana, UniProt Q8L7G4); assay: E. coli coexpression with (E,E)-FPP synthase, GC-MS; type: cell-based; conditions: trace nerolidol and (E)-beta-farnesene formed
T3 construct: gene TPS09; pET Duet; no truncation stated; RIKEN full-length cDNA clone; expressed in E. coli with prenyl diphosphate synthase
T3 sequence (Q8L7G4 1-607): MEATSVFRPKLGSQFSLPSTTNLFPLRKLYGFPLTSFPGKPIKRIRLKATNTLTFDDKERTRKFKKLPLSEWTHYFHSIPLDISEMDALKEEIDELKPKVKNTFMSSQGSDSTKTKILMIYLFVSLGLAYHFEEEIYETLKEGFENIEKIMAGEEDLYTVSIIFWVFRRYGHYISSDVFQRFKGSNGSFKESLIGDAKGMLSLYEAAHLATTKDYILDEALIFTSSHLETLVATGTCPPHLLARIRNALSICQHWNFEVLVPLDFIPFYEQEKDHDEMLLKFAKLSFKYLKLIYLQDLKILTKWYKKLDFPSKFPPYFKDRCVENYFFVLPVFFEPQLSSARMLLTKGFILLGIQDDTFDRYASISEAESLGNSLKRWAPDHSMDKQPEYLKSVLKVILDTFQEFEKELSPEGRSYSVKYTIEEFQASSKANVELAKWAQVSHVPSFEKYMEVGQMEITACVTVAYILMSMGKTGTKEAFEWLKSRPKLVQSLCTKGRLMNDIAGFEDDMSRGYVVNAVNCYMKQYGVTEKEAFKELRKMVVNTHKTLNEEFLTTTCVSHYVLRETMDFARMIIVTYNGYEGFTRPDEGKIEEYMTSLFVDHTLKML

TPS22 = molecular target: T4, TPS22 (Arabidopsis thaliana, UniProt Q9LQ27); assay: in vitro assay, SPME-GC-MS; type: biochemical; conditions: main product (E)-beta-farnesene
T4 construct: N-terminal 41 aa (transit peptide) removed; TOPO-pET102; E. coli; partially purified
T4 sequence (Q9LQ27 42-603): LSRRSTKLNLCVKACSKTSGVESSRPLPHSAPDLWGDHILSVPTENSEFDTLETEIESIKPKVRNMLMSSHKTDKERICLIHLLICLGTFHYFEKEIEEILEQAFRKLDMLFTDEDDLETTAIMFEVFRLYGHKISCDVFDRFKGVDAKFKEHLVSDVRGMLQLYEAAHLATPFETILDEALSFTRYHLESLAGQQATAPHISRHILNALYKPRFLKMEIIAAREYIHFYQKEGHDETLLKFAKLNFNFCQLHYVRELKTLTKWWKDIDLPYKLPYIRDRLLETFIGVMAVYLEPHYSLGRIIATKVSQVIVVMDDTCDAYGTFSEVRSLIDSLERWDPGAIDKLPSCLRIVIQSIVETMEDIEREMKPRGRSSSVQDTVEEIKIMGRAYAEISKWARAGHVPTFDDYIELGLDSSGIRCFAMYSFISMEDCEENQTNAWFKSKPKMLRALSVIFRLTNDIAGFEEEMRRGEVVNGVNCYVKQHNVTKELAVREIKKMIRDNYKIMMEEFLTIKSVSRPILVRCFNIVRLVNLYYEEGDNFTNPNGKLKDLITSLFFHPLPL

TPS30 = molecular target: T5, TPS30 (Arabidopsis thaliana, UniProt Q9LH31); assay: E. coli coexpression with GGPP synthase, GC-MS; type: cell-based; conditions: two unknown diterpenes formed
T5 construct: N-terminal 48 aa removed; pET28a; expressed in E. coli with prenyl diphosphate synthase
T5 sequence (Q9LH31 49-604): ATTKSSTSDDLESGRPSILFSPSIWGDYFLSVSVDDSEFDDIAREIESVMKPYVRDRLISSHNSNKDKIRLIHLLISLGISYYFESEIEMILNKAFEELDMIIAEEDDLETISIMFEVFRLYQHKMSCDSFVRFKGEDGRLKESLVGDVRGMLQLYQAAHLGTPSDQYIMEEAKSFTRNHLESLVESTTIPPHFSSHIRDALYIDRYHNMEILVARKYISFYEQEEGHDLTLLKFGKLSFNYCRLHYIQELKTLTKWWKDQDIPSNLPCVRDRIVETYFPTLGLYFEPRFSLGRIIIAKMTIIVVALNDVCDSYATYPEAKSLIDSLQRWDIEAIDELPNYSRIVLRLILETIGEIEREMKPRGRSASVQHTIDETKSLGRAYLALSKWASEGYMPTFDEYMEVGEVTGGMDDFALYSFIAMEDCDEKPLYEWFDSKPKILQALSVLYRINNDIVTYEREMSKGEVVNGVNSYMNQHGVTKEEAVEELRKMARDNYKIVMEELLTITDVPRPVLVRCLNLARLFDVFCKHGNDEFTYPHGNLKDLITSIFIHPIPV

TPS20c = molecular target: T6, TPS20c (Arabidopsis thaliana, UniProt Q9FI27); assay: radiochemical terpene synthase assay; type: biochemical; conditions: labelled compound ([1-3H]-GGPP); six concentrations, triplicate
T6 construct: gene TPS20; first 53 aa (plastid transit peptide) removed; N-terminal His-tag (pET28a NdeI/XhoI); E. coli; partially purified
T6 sequence (Q9FI27 54-575): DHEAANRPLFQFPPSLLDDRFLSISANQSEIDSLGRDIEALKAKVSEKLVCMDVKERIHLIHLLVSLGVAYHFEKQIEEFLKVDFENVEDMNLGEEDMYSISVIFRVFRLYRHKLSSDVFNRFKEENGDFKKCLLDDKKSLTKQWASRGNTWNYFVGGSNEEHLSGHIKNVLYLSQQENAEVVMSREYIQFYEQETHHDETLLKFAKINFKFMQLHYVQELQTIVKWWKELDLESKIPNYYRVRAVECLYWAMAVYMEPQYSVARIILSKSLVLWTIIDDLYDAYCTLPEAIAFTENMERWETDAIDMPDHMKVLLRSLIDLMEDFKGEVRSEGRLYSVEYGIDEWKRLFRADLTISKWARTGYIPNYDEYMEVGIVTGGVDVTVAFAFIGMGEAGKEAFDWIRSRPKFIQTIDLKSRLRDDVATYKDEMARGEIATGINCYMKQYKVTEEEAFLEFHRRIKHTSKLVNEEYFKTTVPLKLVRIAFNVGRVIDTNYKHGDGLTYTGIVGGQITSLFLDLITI
From the text: radiochemical terpene synthase assay on TPS20c

TPS9 [2] = molecular target: T3, TPS9; assay: E. coli coexpression with GGPP synthase, GC-MS; type: cell-based; conditions: unidentified diterpene olefins formed
TPS6c = molecular target: T7, TPS6c (Arabidopsis thaliana, UniProt Q84UU9); assay: E. coli coexpression with GGPP synthase, GC-MS; type: cell-based; conditions: product (3E,7E)-dolabella-3,7-dien-18-ol and an unknown diterpene
T7 construct: gene TPS06; N-terminal 53 aa removed; pET28a; expressed in E. coli with GGPP synthase
T7 sequence (Q84UU9 54-611): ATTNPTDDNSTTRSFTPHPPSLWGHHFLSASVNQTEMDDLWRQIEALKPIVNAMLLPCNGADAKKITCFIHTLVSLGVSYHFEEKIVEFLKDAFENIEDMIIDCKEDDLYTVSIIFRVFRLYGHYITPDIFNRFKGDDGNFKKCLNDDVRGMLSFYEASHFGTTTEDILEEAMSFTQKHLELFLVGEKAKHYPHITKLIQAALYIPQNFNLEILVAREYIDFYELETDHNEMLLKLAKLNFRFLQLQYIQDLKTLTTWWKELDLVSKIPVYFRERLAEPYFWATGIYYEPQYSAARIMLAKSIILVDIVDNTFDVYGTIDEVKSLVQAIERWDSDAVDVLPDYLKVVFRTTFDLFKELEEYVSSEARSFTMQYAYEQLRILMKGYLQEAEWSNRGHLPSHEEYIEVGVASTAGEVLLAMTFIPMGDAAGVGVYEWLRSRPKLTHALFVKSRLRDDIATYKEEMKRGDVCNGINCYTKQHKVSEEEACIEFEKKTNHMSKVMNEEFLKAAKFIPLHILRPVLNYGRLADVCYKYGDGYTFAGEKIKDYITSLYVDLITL

| SMILES | E. coli coexpression with (E,E)-FPP synthase, GC-MS (TPS26) | in vitro assay, SPME-GC-MS (TPS25) | E. coli coexpression with (E,E)-FPP synthase, GC-MS (TPS9 [1]) | in vitro assay, SPME-GC-MS (TPS22) | E. coli coexpression with GGPP synthase, GC-MS (TPS30) | Km (TPS20c) | E. coli coexpression with GGPP synthase, GC-MS (TPS9 [2]) | E. coli coexpression with GGPP synthase, GC-MS (TPS6c) |
| --- | --- | --- | --- | --- | --- | --- | --- | --- |
| CC(C)=CCC/C(C)=C/CC/C(C)=C/COP(=O)(O)OP(=O)(O)O [(E,E)-FPP] | trace amounts of α-humulene and (E)-β-farnesene being produced by TPS26 | both proteins converted (E,E)-FPP into sesquiterpenes in vitro with (E)-β-farnesene as the main compound | When co-expressed with (E,E)-FPP synthase, TPS9 produced trace amounts of nerolidol and (E)-β-farnesene | both proteins converted (E,E)-FPP into sesquiterpenes in vitro with (E)-β-farnesene as the main compound | – | – | – | – |
| CC(C)=CCC/C(C)=C/CC/C(C)=C/CC/C(C)=C/COP(=O)(O)OP(=O)(O)O [GGPP] | – | – | – | – | protein encoded by gene TPS30 reacted with GGPP to form two unknown diterpenes | 6.29 ± 0.24 µM | TPS9 converted GGPP to one predominant diterpene olefin and eight minor diterpene products | TPS6c reacts with GGPP to produce dolabelladienol and an unknown diterpene |
